{"source": "patent US8242122B2", "about": "“Method and compounds for inhibition of cell death” (University of Central Florida Research Foundation, Inc., priority 2002, dated 2012)", "key": {"His-Omi-134-458 [1]": {"target": "T1, His-Omi-134-458 (Homo sapiens, UniProt O43464)", "T1 sequence (O43464 134-458)": "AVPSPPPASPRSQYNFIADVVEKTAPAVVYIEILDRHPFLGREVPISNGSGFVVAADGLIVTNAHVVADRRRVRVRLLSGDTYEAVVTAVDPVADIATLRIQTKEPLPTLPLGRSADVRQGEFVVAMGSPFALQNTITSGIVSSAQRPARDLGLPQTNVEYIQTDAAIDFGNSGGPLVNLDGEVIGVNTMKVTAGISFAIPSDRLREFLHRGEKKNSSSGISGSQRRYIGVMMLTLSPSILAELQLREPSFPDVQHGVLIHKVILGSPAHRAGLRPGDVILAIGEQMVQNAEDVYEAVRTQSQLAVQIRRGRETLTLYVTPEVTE", "conditions": "30 min at 37° C"}, "Hu-plasmin": {"target": "Hu-plasmin (Homo sapiens, UniProt P00747)", "sequence (P00747 581-810 limits assumed)": "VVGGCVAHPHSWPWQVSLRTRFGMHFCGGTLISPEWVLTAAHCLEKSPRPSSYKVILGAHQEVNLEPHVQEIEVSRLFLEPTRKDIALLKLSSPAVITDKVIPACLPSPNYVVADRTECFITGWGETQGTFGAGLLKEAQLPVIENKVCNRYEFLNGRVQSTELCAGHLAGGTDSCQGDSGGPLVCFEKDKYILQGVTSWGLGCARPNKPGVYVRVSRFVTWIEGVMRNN", "sequence (P00747 97-580 limits assumed)": "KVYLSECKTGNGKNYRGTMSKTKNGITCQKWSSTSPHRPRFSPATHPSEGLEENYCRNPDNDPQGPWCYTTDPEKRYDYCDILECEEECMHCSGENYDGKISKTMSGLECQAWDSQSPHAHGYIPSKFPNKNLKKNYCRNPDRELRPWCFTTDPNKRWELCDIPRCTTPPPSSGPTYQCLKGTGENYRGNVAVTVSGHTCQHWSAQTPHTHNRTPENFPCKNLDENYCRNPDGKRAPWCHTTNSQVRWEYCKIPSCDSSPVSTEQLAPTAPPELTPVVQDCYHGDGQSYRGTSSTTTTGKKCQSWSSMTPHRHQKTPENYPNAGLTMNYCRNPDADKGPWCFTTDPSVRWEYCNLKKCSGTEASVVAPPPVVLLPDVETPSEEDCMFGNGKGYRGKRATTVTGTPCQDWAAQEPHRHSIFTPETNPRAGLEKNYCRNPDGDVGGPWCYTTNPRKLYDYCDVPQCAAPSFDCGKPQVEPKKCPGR", "conditions": "read-out: IC50 Hu-plasmin; two independent experiments"}, "HeLa cells [2]": {"test_system": "HeLa cells", "conditions": "HeLa cells, 50, 40 and 20 μM, 2 h"}, "Hu-kallikrein": {"target": "Hu-kallikrein (Homo sapiens, UniProt P03952)", "sequence (P03952 391-638 limits assumed)": "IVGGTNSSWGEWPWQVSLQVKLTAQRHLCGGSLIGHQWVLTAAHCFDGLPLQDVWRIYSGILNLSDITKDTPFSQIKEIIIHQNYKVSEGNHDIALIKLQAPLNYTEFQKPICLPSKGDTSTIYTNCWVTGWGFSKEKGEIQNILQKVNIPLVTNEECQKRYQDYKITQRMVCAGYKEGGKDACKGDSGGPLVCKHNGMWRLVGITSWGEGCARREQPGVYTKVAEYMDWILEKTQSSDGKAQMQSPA", "sequence (P03952 20-390 limits assumed)": "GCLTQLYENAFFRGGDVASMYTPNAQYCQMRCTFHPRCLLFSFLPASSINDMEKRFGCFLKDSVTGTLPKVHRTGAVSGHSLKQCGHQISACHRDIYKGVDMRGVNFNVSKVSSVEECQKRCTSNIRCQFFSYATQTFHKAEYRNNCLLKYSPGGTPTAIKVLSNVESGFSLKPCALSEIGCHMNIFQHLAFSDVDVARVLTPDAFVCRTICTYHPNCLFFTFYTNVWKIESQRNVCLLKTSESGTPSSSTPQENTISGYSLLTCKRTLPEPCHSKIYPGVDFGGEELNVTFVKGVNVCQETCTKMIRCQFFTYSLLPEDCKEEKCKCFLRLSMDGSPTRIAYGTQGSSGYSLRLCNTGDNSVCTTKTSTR", "conditions": "read-out: IC50 Hu-kallikrein; two independent experiments"}, "His-Omi-134-458 [3]": {"target": "T1, His-Omi-134-458", "conditions": "read-out: IC50 on His-Omi; average from three independent experiments"}, "Hu-u-PA": {"target": "Hu-u-PA (Homo sapiens, UniProt P00749)", "conditions": "read-out: IC50 Hu-u-PA; two independent experiments"}, "MPT cells": {"test_system": "MPT cells", "experiment": "Cisplatin-induced apoptosis in MPT cells, annexin V flow cytometry", "conditions": "20 μM or 50 μM ucf-101 for 20 minutes, then cisplatin 6 hours"}, "[4]": {"test_system": "caspase-9 (−/−) null fibroblasts"}, "HeLa cells [5]": {"test_system": "HeLa cells", "experiment": "Apoptosis in HeLa cells transfected with Omi-GVPS-GFP", "conditions": "increasing concentration of ucf-101"}, "MBP-Omi-(134-458) [6]": {"target": "T2, MBP-Omi-(134-458) (Homo sapiens, UniProt O43464)", "T2 sequence (O43464 134-458)": "as the sequence (O43464 134-458) above", "conditions": "10 μM compound; after two rounds of screening and selection"}, "Hu-thrombin": {"target": "Hu-thrombin (Homo sapiens, UniProt P00734)", "conditions": "read-out: IC50 Hu-thrombin; two independent experiments"}, "[7]": {"target": "Hu-rec.-FVIIa (FVIIa/tissue factor) (Homo sapiens, UniProt P08709)", "sequence (P08709 213-466 limits assumed)": "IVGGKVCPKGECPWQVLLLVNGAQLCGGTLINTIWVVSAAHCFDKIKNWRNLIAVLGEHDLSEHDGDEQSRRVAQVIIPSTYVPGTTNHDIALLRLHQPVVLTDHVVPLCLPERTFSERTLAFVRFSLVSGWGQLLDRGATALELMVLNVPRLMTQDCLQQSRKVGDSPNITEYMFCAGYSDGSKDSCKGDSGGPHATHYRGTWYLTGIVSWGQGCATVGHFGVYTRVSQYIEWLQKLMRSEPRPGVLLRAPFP", "sequence (P08709 61-212 limits assumed)": "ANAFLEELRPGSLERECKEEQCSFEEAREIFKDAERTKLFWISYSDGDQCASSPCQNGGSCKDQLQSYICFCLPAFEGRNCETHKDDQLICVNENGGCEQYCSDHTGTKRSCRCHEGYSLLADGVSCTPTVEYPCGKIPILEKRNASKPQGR", "sequence (P13726 33-295 partner)": "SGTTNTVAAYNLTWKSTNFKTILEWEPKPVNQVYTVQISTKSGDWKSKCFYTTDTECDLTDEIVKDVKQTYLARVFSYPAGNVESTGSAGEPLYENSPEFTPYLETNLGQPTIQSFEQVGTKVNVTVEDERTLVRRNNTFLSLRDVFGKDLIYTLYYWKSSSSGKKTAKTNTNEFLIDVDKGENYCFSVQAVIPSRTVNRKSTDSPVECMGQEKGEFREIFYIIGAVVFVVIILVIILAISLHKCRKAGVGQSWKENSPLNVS", "conditions": "read-out: IC50 Hu-rec.-FVIIa; two independent experiments"}, "[8]": {"target": "MBP-L56-(140-480) (L56/HtrA1) (Homo sapiens, UniProt Q92743)", "sequence (Q92743 140-480)": "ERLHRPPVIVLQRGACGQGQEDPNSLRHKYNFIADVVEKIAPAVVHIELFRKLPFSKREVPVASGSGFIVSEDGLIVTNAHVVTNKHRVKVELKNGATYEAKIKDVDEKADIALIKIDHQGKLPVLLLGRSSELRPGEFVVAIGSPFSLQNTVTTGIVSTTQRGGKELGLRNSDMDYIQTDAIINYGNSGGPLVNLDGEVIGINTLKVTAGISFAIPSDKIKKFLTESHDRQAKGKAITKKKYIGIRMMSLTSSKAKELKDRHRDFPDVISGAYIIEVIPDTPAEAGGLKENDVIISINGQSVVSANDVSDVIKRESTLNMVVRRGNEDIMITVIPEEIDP", "conditions": "various concentrations; initial 20 min"}, "Canine-Fxa": {"test_system": "Canine-Fxa", "conditions": "read-out: IC50 Canine-Fxa; two independent experiments"}, "Bovine-trypsin": {"target": "Bovine-trypsin (Bos taurus, UniProt P00760)", "sequence (P00760 24-246)": "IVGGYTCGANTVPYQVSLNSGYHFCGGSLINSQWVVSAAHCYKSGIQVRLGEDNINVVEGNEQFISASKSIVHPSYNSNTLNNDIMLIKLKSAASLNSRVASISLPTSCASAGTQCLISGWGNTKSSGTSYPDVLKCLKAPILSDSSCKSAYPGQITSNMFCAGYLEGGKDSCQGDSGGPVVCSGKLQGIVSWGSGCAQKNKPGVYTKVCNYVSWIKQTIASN", "conditions": "read-out: IC50 Bovine-trypsin; two independent experiments"}, "His-Omi-134-458 [9]": {"target": "T1, His-Omi-134-458", "conditions": "200 ng His-Omi, 5 μg β-casein, 30 min"}, "Hu-t-PA": {"target": "Hu-t-PA (Homo sapiens, UniProt P00750)", "sequence (P00750 36-562)": "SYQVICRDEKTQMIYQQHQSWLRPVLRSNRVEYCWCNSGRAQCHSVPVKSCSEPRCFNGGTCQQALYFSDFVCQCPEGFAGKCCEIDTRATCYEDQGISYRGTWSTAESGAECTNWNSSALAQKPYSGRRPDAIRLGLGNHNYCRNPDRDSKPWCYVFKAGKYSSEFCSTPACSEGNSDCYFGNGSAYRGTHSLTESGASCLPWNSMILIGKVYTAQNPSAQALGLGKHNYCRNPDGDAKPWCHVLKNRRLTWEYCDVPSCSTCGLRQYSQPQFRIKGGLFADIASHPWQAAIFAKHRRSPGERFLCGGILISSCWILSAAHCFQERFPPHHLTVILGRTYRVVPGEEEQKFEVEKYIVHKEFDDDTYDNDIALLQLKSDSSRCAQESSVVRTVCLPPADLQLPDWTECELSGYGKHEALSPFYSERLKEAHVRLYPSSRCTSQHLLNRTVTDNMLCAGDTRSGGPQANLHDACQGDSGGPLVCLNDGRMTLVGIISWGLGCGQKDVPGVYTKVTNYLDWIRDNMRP", "conditions": "read-out: IC50 Hu-t-PA; two independent experiments"}, "MBP-Omi-(134-458) [10]": {"target": "T2, MBP-Omi-(134-458)"}, "Rat-Fxa": {"target": "Rat-Fxa (Rattus norvegicus, UniProt Q63207)", "sequence (Q63207 232-482 limits assumed)": "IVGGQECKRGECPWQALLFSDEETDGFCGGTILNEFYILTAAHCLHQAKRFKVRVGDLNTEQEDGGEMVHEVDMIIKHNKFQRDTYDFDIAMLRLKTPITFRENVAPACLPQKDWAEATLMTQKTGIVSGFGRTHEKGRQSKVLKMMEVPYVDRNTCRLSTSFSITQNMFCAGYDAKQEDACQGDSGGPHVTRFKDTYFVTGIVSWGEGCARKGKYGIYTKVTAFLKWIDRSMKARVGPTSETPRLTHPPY", "sequence (Q63207 41-180 limits assumed)": "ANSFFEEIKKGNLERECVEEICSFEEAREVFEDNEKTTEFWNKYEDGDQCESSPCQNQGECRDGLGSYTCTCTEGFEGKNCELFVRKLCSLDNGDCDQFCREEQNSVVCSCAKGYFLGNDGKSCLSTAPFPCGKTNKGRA", "conditions": "read-out: IC50 Rat-Fxa; two independent experiments"}}, "note": "Several values for one entry are separate records, joined by “and”; a condition that tells them apart may be missing. Equal entries are not always repeated. Where two headings read alike, the source gives them in different places.", "data": [{"smiles": "Cc1cccc([N+](=O)[O-])c1-c1ccc(C=C2C(=O)N(c3ccccc3)C(=S)N(c3ccccc3)C2=O)o1", "note": "[ucf-101]", "values": [{"measurement": "cleavage of two kidney cytoplasmic polypeptides (14-3-3, annexin V) by His-Omi", "setting": "His-Omi-134-458 [1]", "result": "cleavage was prevented"}, {"measurement": "IC50", "setting": "Hu-plasmin", "result": "> 500 µM and 400 µM"}, {"measurement": "ability to enter mammalian cells (cytoplasmic fluorescence)", "setting": "HeLa cells [2]", "result": "cells are permeable to this chemical"}, {"measurement": "IC50", "setting": "Hu-kallikrein", "result": "200 µM and 250 µM"}, {"measurement": "IC50", "setting": "His-Omi-134-458 [3]", "result": 9.5, "unit": "µM"}, {"measurement": "IC50", "setting": "Hu-u-PA", "result": "≥ 500", "unit": "µM"}, {"measurement": "cisplatin-induced apoptosis (annexin V positive cells)", "setting": "MPT cells", "result": "reduces apoptosis in a dose-dependent manner"}, {"measurement": "cytotoxicity", "setting": "[4]; 25 μM, M-Omi-GFP and control transfected cells", "result": "cytotoxic side effect that caused apoptosis"}, {"measurement": "reduction of Omi-induced apoptosis", "setting": "[4]; M-Omi-GFP transfected cells, up to 10 μM, 36 h", "result": "up to 40%"}, {"measurement": "effect on control (vector alone) transfected cells", "setting": "[4]; pEGFP-N1 transfected cells, up to 10 μM", "result": "no effect"}, {"measurement": "apoptosis of fibroblasts transfected with cytoplasmic Omi", "setting": "[4]; treated with ucf-101", "result": "apoptosis was dramatically reduced"}, {"measurement": "protease activity and apoptosis induced by Omi-GVPS-GFP", "setting": "HeLa cells [5]", "result": "inhibited the protease activity and apoptosis"}, {"measurement": "inhibition of MBP-Omi-(134-458) activity", "setting": "MBP-Omi-(134-458) [6]", "result": "> 50", "unit": "%"}, {"measurement": "IC50", "setting": "Hu-thrombin", "result": "> 500", "unit": "µM"}, {"measurement": "IC50", "setting": "[7]", "result": "> 500", "unit": "µM"}, {"measurement": "inhibition of L56-(140-480) activity", "setting": "[8]", "result": "effective inhibitor of the activity of His-L56-(140-480) but to a lesser extent than His-Omi-(134-458)"}, {"measurement": "IC50", "setting": "Canine-Fxa", "result": "430 µM and 360 µM"}, {"measurement": "IC50", "setting": "Bovine-trypsin", "result": "> 500", "unit": "µM"}, {"measurement": "inhibition of His-Omi-(134-458) activity against β-casein", "setting": "His-Omi-134-458 [9]; 80 μM", "result": "inhibit completely"}, {"measurement": "inhibition of His-Omi-(134-458) activity against β-casein", "setting": "His-Omi-134-458 [9]; 10-100 μM (lanes 4-9)", "result": "concentration-dependent manner"}, {"measurement": "IC50", "setting": "Hu-t-PA", "result": 390, "unit": "µM"}, {"measurement": "mode of inhibition", "setting": "MBP-Omi-(134-458) [10]; 10 μM ucf-101, various amounts of Dcasein-FITC", "result": "competitive inhibitor"}, {"measurement": "inhibition of MBP-Omi-(134-458) activity", "setting": "MBP-Omi-(134-458) [10]; 20 μM compound, 10 μg Dcasein-FITC, 2 μg enzyme", "result": "more than 78%"}, {"measurement": "effect of longer preincubation with enzyme on inhibition (reversibility)", "setting": "MBP-Omi-(134-458) [10]; preincubated at 37° C for 40 min or 1 h, various concentrations", "result": "inhibition was reduced"}, {"measurement": "IC50", "setting": "Rat-Fxa", "result": "410 µM and > 500 µM"}]}]}
